The record followed here is patent publication US20090130101A1, “ANTI-CANCER THERAPY WITH AN EXTRACT OF SCUTELLARIA BARBATA” (BIONOVO, INC., priority 2007, published 2009).

The subject of experiment [1] is ROS. In words: ROS generation, CM-H2DCFDA conversion. The settings on record: incubation of cells with the ROS scavenger prior to addition of BZL101, FIG. 10. The class given is cell-based.
The subject of experiment [2] is subcutaneous cancer xenografts. It is filed as in vivo, mice. The settings on record: BZL101 0.5 ml oral gavage every third day; cyclophosphamide 25 mg/Kg/day in drinking water; FIG. 6. The protocol:
As in Example 1, above, 10^5 cells were administered to each animal subcutaneously on Day 0. The animals were divided into four groups. The control group received only normal drinking water. The cyclophosphamide only group received 25 mg/Kg/day of cyclophosphamide in their drinking water.

As for `CC(=O)N[C@@H](CS)C(=O)O` [N-acetyl-cysteine], the “effect on BZL101-induced ROS generation” value in experiment [1] is “prevented most of the increase in ROS generation”.
As to `O=P1(N(CCCl)CCCl)NCCCO1` (centres unmarked) [cyclophosphamide], the tumor growth entry in experiment [2] is given as “inhibited tumor growth as compared to the control”.
